Test results published in US11149033B2, “Heteroaryl compound, enantiomer, diastereomer or pharmaceutically acceptable salt thereof, and antiviral composition containing same as active ingredient” (priority 2016, dated 2021).
Where two headings read alike, the source gives them in different places.

Assays:
[1] = test system: A/California/07/2009 (H1N1); test: Antiviral activity (drug efficacy evaluation by concentration) against A/California/07/2009 (H1N1); format: cell-based, A type influenza virus; details: Influenza A virus
B/Florida/04/2006 = test: Antiviral activity (drug efficacy evaluation by concentration) against B/Florida/04/2006; format: cell-based, B type influenza virus
A/Perth/16/2009 (H3N2) = test: Antiviral activity (drug efficacy evaluation by concentration) against A/Perth/16/2009 (H3N2); format: cell-based, A type influenza virus; details: Influenza A virus
[2] = H1N1, A/California/07/2009 (H1N1), read-out: EC50 A/California/07/2009 (H1N1)
[3] = CC50 B/Florida/04/2006, cytotoxicity in the B/Florida/04/2006 assay
[4] = read-out: EC50 B/Florida/04/2006, B/Florida/04/2006
[5] = H3N2, A/Perth/16/2009 (H3N2), read-out: EC50 A/Perth/16/2009 (H3N2)
[6] = CC50, third EC50/CC50 column pair (c7), beside the EC50 of c6

Row | Structure (SMILES) | EC50 [1, 2] | CC50 (in vitro; [3]) | melting point | EC50 (B/Florida/04/2006; [4]) | EC50 (A/Perth/16/2009 (H3N2); [5]) | EC50 ([1]; H1N1, read-out: EC50) | CC50 (in vitro; CC50, beside the EC50 of c2) | CC50 (in vitro; CC50, beside the EC50 of c4) | CC50 (in vitro; [6]) | EC50 (B/Florida/04/2006) | EC50 (A/Perth/16/2009 (H3N2); H3N2, read-out: EC50)
1 | Cc1nn(Cc2nnc(SCc3ccc(-c4ccccc4)cc3)o2)c(C)c1Br [Compound 2, 2-(([1,1′-biphenyl]-4-ylmethyl)thio)-5-((4-bromo-3,5-dimethyl-1H-pyrazol-1-yl)methyl)-1,3,4-oxadiazole] | 47.5 µM | > 50 µM | 135.9 °C | > 50 µM | 46.7 µM | – | – | – | – | – | –
2 | Cc1nn(Cc2nnc(SCc3cccc(-c4ccccc4)c3)o2)c(C)c1Br [Compound 6, 2-(([1,1′-biphenyl]-3-ylmethyl)thio)-5-((4-bromo-3,5-dimethyl-1H-pyrazol-1-yl)methyl)-1,3,4-oxadiazole] | 2.91 µM | > 50 µM | 90.3 °C | 3 µM | 2.74 µM | – | – | – | – | – | –
3 | Cc1nn(Cc2nnc(SCc3cccc4ccccc34)o2)c(C)c1Br [Compound 8, 2-((4-bromo-3,5-dimethyl-1H-pyrazol-1-yl)methyl)-5-((naphthalen-1-ylmethyl)thio)-1,3,4-oxadiazole] | 6.94 µM | > 50 µM | 112.1 °C | 7.48 µM | 10.5 µM | – | – | – | – | – | –
4 | COc1ccccc1CSc1nnc(Cn2nc(C)c(Br)c2C)o1 [Compound 10, 2-((4-bromo-3,5-dimethyl-1H-pyrazol-1-yl)methyl)-5-((2-methoxybenzyl)thio)-1,3,4-oxadiazole] | 16.8 µM | > 50 µM | 87.3 °C | 15.5 µM | 18.4 µM | – | – | – | – | – | –
5 | Cc1nn(Cc2nnc([S+]([O-])Cc3ccccc3-c3ccccc3)o2)c(C)c1Br (stereo not shown) [Compound 12, 2-(([1,1′-biphenyl]-2-ylmethyl)sulfinyl)-5-((4-bromo-3,5-dimethyl-1H-pyrazol-1-yl)methyl)-1,3,4-oxadiazole] | 2.51 µM | 7.81 µM | 48.2 °C | 2.61 µM | 3.26 µM | – | – | – | – | – | –
6 | CC(=O)c1ccccc1CSc1nnc(Cn2nc(C)c(Br)c2C)o1 [Compound 28, 1-(2-(((5-((4-bromo-3,5-dimethyl-1H-pyrazol-1-yl)methyl)-1,3,4-oxadiazol-2-yl)thio)methyl)phenyl)ethan-1-one] | > 50 µM | > 50 µM | 63.7 °C | > 50 µM | > 50 µM | – | – | – | – | – | –
7 | Cc1nn(Cc2nnc(SCc3ccccc3Oc3ccccc3)o2)c(C)c1Br [Compound 29, 2-((4-bromo-3,5-dimethyl-1H-pyrazol-1-yl)methyl)-5-((2-phenoxybenzyl)thio)-1,3,4-oxadiazole] | 1.2 µM | 5.23 µM | 92.3 °C | 1.99 µM | 1.4 µM | – | – | – | – | – | –
8 | Cc1ccc(-c2ccccc2CSc2nnc(Cn3nc(C)c(Br)c3C)o2)cc1 [Compound 32, 2-((4-bromo-3,5-dimethyl-1H-pyrazol-1-yl)methyl)-5-(((4′-methyl-[1,1′-biphenyl]-2-yl)methyl)thio)-1,3,4-oxadiazole] | 0.6 µM | 7.32 µM | 102.3 °C | 1.38 µM | 0.5 µM | – | – | – | – | – | –
9 | Cc1nn(Cc2nnc(SCc3ccccc3-c3ccc(Cl)cc3)o2)c(C)c1Br [Compound 33, 2-((4-bromo-3,5-dimethyl-1H-pyrazol-1-yl)methyl)-5-(((4′-chloro-[1,1′-biphenyl]-2-yl)methyl)thio)-1,3,4-oxadiazole] | 0.6 µM | 6.28 µM | 84.7 °C | 1.46 µM | 0.5 µM | – | – | – | – | – | –
10 | Cc1nn(Cc2nnc(SCc3ccccc3-c3ccsc3)o2)c(C)c1Br [Compound 35, 2-((4-bromo-3,5-dimethyl-1H-pyrazol-1-yl)methyl)-5-((2-(thiophen-3-yl)benzyl)thio)-1,3,4-oxadiazole] | 0.7 µM | > 50 µM | 86.9 °C | 1.88 µM | 0.8 µM | – | – | – | – | – | –
11 | COC(=O)c1ccccc1CSc1nnc(Cn2nc(C)c(Br)c2C)o1 [Compound 37, methyl 2-(((5-((4-bromo-3,5-dimethyl-1H-pyrazol-1-yl)methyl)-1,3,4-oxadiazol-2-yl)thio)methyl)benzoate] | 37.8 µM | > 50 µM | 123.6 °C | > 50 µM | 41.8 µM | – | – | – | – | – | –
12 | Brc1ccc(-c2nnc(SCc3ccccc3-c3ccccc3)o2)cc1 [Compound 42, 2-(([1,1′-biphenyl]-2-ylmethyl)thio)-5-(4-bromophenyl)-1,3,4-oxadiazole] | 1.62 µM | 14.8 µM | 120.5 °C | 2.92 µM | 2.33 µM | – | – | – | – | – | –
13 | Cc1ccccc1CSc1ccc(C(=O)n2nc(C)c(Br)c2C)o1 [Compound 48, (4-bromo-3,5-dimethyl-1H-pyrazol-1-yl)(5-((2-methylbenzyl)thio)furan-2-yl)methanone] | 4.88 µM | 9.54 µM | 101.2 °C | 23.4 µM | 11.3 µM | – | – | – | – | – | –
14 | O=C(NCc1nnc(SCc2ccccc2-c2ccccc2)o1)c1ccc(Br)cc1 [Compound 51, N-((5-(([1,1′-biphenyl]-2-ylmethyl)thio)-1,3,4-oxadiazol-2-yl)methyl)-4-bromobenzamide] | 4.01 µM | 28.6 µM | 135.4 °C | 6.02 µM | 5.04 µM | – | – | – | – | – | –
15 | Brc1ccc(Nc2nnc(SCc3ccccc3-c3ccccc3)o2)cc1 [Compound 52, 5-(([1,1′-biphenyl]-2-ylmethyl)thio)-N-(4-bromophenyl)-1,3,4-oxadiazol-2-amine] | > 50 µM | > 50 µM | 158.2 °C | 16.3 µM | 8.11 µM | – | – | – | – | – | –
16 | Cc1ccccc1Sc1nnc(Cn2nc(C)c(Br)c2C)o1 [Compound 53, 2-((4-bromo-3,5-dimethyl-1H-pyrazol-1-yl)methyl)-5-(o-tolylthio)-1,3,4-oxadiazole] | 0.12 µM | 7.91 µM | 103.6 °C | 8.94 µM | 8.57 µM | – | – | – | – | – | –
17 | O=S(=O)(Cc1ccccc1-c1ccccc1)c1nnc(Cc2ccc(Br)cc2)o1 [Compound 60, 2-(([1,1′-biphenyl]-2-ylmethyl)sulfonyl)-5-(4-bromobenzyl)-1,3,4-oxadiazole] | 12.1 µM | 8.46 µM | 134.2 °C | 4.11 µM | 6.36 µM | – | – | – | – | – | –
18 | Cc1cc(Br)cc(C)c1Nc1nnc(SCc2ccccc2-c2ccccc2)o1 [Compound 61, 5-(([1,1′-biphenyl]-2-ylmethyl)thio)-N-(4-bromo-2,6-dimethylphenyl)-1,3,4-oxadiazol-2-amine] | 2.3 µM | 4.02 µM | 211.2 °C | 2.3 µM | 2.61 µM | – | – | – | – | – | –
19 | [O-][S+](Cc1ccccc1-c1ccccc1)c1nnc(Nc2ccc(Br)cc2)o1 (stereo not shown) [Compound 63, 5-(([1,1′-biphenyl]-2-ylmethyl)sulfinyl)-N-(4-bromophenyl)-1,3,4-oxadiazol-2-amine] | 2.61 µM | > 14.6 µM | 199 °C | 7.06 µM | 6.05 µM | – | – | – | – | – | –
20 | O=C(c1ccccc1)c1nnc(Cc2ccc(Br)cc2)o1 [Compound 64, (5-(4-bromobenzyl)-1,3,4-oxadiazol-2-yl)(phenyl)methanone] | 5.97 µM | > 50 µM | 139.9 °C | 40.5 µM | > 50 µM | – | – | – | – | – | –
21 | Cc1cc(C)cc(Nc2nnc(SCc3ccccc3-c3ccccc3)o2)c1 [Compound 68, 5-(([1,1′-biphenyl]-2-ylmethyl)thio)-N-(3,5-dimethylphenyl)-1,3,4-oxadiazol-2-amine] | 2.77 µM | > 50 µM | 232.2 °C | 1.83 µM | 1.6 µM | – | – | – | – | – | –
22 | c1ccc(Nc2nnc(SCc3ccccc3-c3ccccc3)o2)cc1 [Compound 71, 5-(([1,1′-biphenyl]-2-ylmethyl)thio)-N-phenyl-1,3,4-oxadiazol-2-amine] | 21 µM | 6.53 µM | 172.1 °C | 22.8 µM | 14.2 µM | – | – | – | – | – | –
23 | Cc1cccc(C)c1Nc1nnc(C(=O)c2ccccc2)o1 [Compound 76, (5-((2,6-dimethylphenyl)amino)-1,3,4-oxadiazol-2-yl)(phenyl)methanone] | 14.1 µM | > 50 µM | 236.1 °C | > 50 µM | 14.1 µM | – | – | – | – | – | –
24 | COc1ccccc1/C=C/c1nnc(Cc2ccc(Br)cc2)o1 [Compound 163, 2-(4-bromobenzyl)-5-(2-methoxystyryl)-1,3,4-oxadiazole] | – | – | 106.3 °C | – | – | 32.3 µM | > 50 µM | > 50 µM | > 50 µM | > 50 µM | –
25 | Cc1ccc(/C=C/c2nnc(Cc3cccc(Br)c3)o2)c(Cl)c1 [Compound 195, 2-(3-bromobenzyl)-5-(2-chloro-4-methylstyryl)-1,3,4-oxadiazole] | – | – | – | – | – | 6.14 µM | > 50 µM | > 50 µM | > 50 µM | 5.74 µM | 5.79 µM
26 | Fc1ccc(/C=C/c2nnc(Cc3cncc(Br)c3)o2)c(Cl)c1 [Compound 205, (E)-2-((5-bromopyridin-3-yl)methyl)-5-(2-chloro-4-fluorostyryl)-1,3,4-oxadiazole] | – | – | – | – | – | 43 µM | > 50 µM | > 50 µM | > 50 µM | 34.9 µM | 21.6 µM
27 | COc1ccccc1/C=C/c1nnc(Cc2cccc(Br)c2)o1 [Compound 210, 2-(3-bromobenzyl)-5-(2-methoxystyryl)-1,3,4-oxadiazole] | – | – | – | – | – | 47.3 µM | 48.1 µM | 48.1 µM | 46.8 µM | 36.2 µM | 23.5 µM
